This is an account of results in patent US20010036929A1, “Xrcc3 is required for assembly of Rad51-complexes in vivo” (ARCH Development Corporation., priority 1998, published 2001).

The test system of test [1] is Rad51 foci in CHO PXR3 cells. In words: Cisplatin-induced Rad51 focus formation (a-Rad51 immunostaining) in PXR3 cells. The test is classed as cell-based, Chinese hamster. As to conditions: foci per nucleus, single focal plane. The procedure:
(§1) Cisplatin treatment: For dose response studies, the cultures were washed twice in serum-free medium and then incubated for 1 hour in serum-free medium containing varying concentrations of cisplatin (Bristol Laboratories). After the incubation, the dishes were washed three times in serum-free medium and complete medium was added. Cultures were then placed at 37° C. for 3 hours at which time a single-cell suspension was obtained with trypsin/EDTA and the cells were prepared for immunostaining. For time course studies, cell cultures were washed twice in serum-free medium and incubated for one hour in serum-free medium containing 10 μM cisplatin. After incubation, the cells were washed and incubated in complete medium. At the appropriate times the cells were harvested by trypsin treatment and prepared for immunostaining. Immunostaining: Fixed cells were transferred to slides using a Cytospin 2 (Shandon, Pittsburgh, Pa.) centrifuge. Slides were washed twice in Tris-buffered saline (TBS) and incubated for 15 minutes in TBS 1% bovine serum albumin BSA at room temperature. The wash was removed and anti-Rad51 antibody in TBS 1% BSA was applied. The slides were incubated overnight at 4° C. in a humidified chamber. The slides were washed twice in TBS and secondary antibody (fluorescein-conjugated goat anti-rabbit; Molecular Probes, Inc., Eugene, Oreg.) was applied at a 1:1000 dilution in the dark. […]

In another test the test system is xrcc3− tumors. Briefly: Mouse xenograft tumor model, xrcc3- tumors, intratumoral cisplatin. The test is classed as in vivo. As to conditions: xrcc3− tumors in nude mice; 0.1 ml 100 μg/ml cisplatin injected into tumors on days 1-5. The procedure:
(§2) The sensitivity of XRCC3 defective cells to cis-platinum is also reflected in the ability of the drug to cause regression and cure of tumors in a mouse xenograft tumor model. Groups of 12 nude mice were injected in the hind limb with 5X105 XRCC3+ cells or xrcc3− cells. XRCC3+ lines (essentially equivalent to the PXR3 lines described above) and isogenic xrcc3− lines (equivalent to the irs1SF line described above), were injected into nude mice. Tumors were allowed to grow for 2 weeks (volumes of 300-500 mm3). On days 1-5 tumors were injected with 0.1 ml 100 μg/ml cisplatin in PBS or with the same volume of PBS alone. […] Tumor volumes were measured at 3-5 day intervals starting on the first day of treatment. Fractional tumor volumes were calculated as the volume of the tumor on a particular day divided by the volume of the tumor on the day of the first treatment. The fractional tumor volumes in mice injected with XRCC3+ positive cells increased regardless of whether they received cisplatin treatment or the control treatment; the final fractional tumor volume for both the treated and untreated groups was about 5 on average. […] Fractional tumor volume was about 5 on average for the untreated cells and about 0.05 on average for the tumors treated with cisplatin.

The subject of test [2] is Rad51 foci in CHO irs1SF cells. In words: Cisplatin-induced Rad51 focus formation (a-Rad51 immunostaining) in irs1SF cells. The test is classed as cell-based, Chinese hamster. The procedure: as §1
In test [3] the test system is Rad51 foci in CHO AA8 cells. In words: Cisplatin-induced Rad51 focus formation (a-Rad51 immunostaining) in AA8 cells. The test is classed as cell-based, Chinese hamster. As to conditions: for Induction of Rad51 foci: then 3 hours before fixation. The procedure: as §1, with “dark. The slides were incubated at room temperature in the dark for 1 hour. The slides were washed twice with TBS and stained with DAPI (0.1 μg/ml in TBS) for 5 minutes. The slides were dried and coverslips mounted with Vectashield mounting medium (Vector Laboratories Inc., Burlingame, Calif.). Microscopy: Immunostained samples were examined via standard epifluorescence microscopy using a Ziess Photoscope III through a 100X objective. Digital images were obtained with a CCD camera (Imagepoint, Photometrics Inc., Tucson, Ariz.). A single focal plane was documented for each nucleus. Therefore, the numbers presented are less than the total number of foci per nucleus.” for “dark.”

The next test has as its system CHO cells. Conditions: 1 μM cisplatin for 1 hour; cited from earlier work.
Test [4] has as its system Rad51 foci in CHO CXR3 cells. In words: Cisplatin-induced Rad51 focus formation (a-Rad51 immunostaining) in CXR3 cells. The test is classed as cell-based, Chinese hamster. As to conditions: foci per nucleus, single focal plane. The procedure: as §1
Another test has as its system XRCC3+ tumors. In words: Mouse xenograft tumor model, XRCC3+ tumors, intratumoral cisplatin. The test is classed as in vivo. As to conditions: XRCC3+ tumors in nude mice; 0.1 ml 100 μg/ml cisplatin injected into tumors on days 1-5. The procedure:
as §2

Structures are written as SMILES.

Turning to `N.N.[Cl][Pt][Cl]` [cisplatin], the “Rad51 foci induced by cisplatin treatment” value in test [1] is recorded as “up to 30 foci”; in test [3] (AA8 cells, foci per nucleus, single focal plane), “up to 30 foci”; in test [4], “up to 30 foci”. The “Fractional tumor volume (volume on day / volume on day of first treatment), average” value in the test with xrcc3− tumors is “about 0.05”. Also, the “Induction of Rad51 foci by cisplatin treatment” value in test [2] is recorded as “no induction of foci was detected”. The entries for the “Induction of Rad51 foci” value in test [3] (1 μM cisplatin for 1 hour) and in test [3] (10 μM cisplatin for 1 hour) were “Significant induction of foci” and “Near maximum induction of foci”, respectively. Also, the Cells that survive in the test with CHO cells is given as 50-80%. Also, the “Final fractional tumor volume (volume on day / volume on day of first treatment), average” value with XRCC3+ tumors was “about 5”.
